The results in this text go back to ChEMBL document CHEMBL1201862, “PubChem BioAssay data set” (2004).

Assay [1] addresses T1, Endoribonuclease toxin MazF (Escherichia coli K-12, UniProt P0AE70).
T1 sequence (P0AE70 whole entry): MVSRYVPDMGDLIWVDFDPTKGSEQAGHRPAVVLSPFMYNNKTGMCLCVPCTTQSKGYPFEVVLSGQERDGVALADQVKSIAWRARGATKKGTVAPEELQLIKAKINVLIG
The experiment in a line: MazF toxin RNase activators, dose response, biochemical, fluorescence, single-stranded RNA substrate, uHTS hits (AID 588481). In kind it is functional.

The target in assay [2] is T1, Endoribonuclease toxin MazF. Kind of assay: fluorescent RNA oligo signal without MazF, dose response, counter-screen for MazEF activator project, biochemical, fluorescence, single-stranded RNase substrate (AID 588502). Type of assay: functional. On the technique in general: The purpose of a counterscreen is to sort out artefacts and off-target activity.
The target of assay [3] is ATP-dependent molecular chaperone HSP82 (Candida albicans (strain WO-1) (Yeast), UniProt C4YTQ8). The experiment in a line: loss of DOC-induced GRE-beta-galactosidase reporter signal, dose response, Hsp90 inhibitor project, S. cerevisiae, luminescence (AID 2400).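 Also: beta-galactosidase luminescence from glucocorticoid response element reporter as proxy for Hsp90 function; inhibitor potency where signal loss means Hsp90 inhibition.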 In kind it is functional, cell-based.
In assay [4] the target is T2, Serine/threonine-protein phosphatase (Candida dubliniensis (strain CD36 / CBS 7987 / NCPF 3949 / NRRLY-17841) (Yeast), UniProt B9W6M3).
T2 sequence (B9W6M3 whole entry): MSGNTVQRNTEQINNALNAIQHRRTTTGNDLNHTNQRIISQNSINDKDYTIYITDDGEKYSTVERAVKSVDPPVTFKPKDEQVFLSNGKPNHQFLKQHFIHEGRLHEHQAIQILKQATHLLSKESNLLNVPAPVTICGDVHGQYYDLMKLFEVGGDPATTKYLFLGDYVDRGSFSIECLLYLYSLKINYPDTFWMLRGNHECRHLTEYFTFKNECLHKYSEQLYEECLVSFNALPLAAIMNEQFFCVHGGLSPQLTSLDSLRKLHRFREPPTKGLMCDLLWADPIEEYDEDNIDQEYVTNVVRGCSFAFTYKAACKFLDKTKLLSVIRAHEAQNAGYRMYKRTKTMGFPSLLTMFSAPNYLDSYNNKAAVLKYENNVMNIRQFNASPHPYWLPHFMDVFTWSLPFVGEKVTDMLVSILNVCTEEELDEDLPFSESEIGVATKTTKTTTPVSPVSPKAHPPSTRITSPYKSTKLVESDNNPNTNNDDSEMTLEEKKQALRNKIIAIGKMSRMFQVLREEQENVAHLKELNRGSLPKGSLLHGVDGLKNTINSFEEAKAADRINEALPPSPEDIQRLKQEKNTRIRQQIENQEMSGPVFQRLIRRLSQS
Kind of assay: calcineurin pathway inhibitors in yeast reporter, dose response, S. cerevisiae, CDRE-lacZ, luminescence, secondary (AID 2388).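 Also: yeast reporter cells carrying a calcineurin-responsive lacZ construct stimulated with calcium chloride; luminescent beta-galactosidase reporter signal in whole cells rather than isolated phosphatase activity; potency for inhibition where a drop in reporter signal means calcineurin blockade.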 In kind it is functional, cell-based.

Assay [5] can be described thus: NIH-3T3 fibroblast cytotoxicity, dose response, cytotoxicity control, cell-based, fluorescence, Alamar Blue, secondary assay (AID 2327).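 Also: NIH-3T3 mouse fibroblasts cultured with fluconazole at 8 µg/mL.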 Type of assay: functional.
Assay [6] in a line: C. albicans growth with fluconazole, confirmation, fluorescence, retest (AID 2467). Type of assay: functional, cell-based.
Assay [7] is described as follows: Luminescence Cell-Based Dose Retest to Confirm Inhibitors of Cancer Stem Cells. [Related pubchem assays (depositor defined):AID2717, AID2721]. Type of assay: functional, Homo sapiens. As to conditions: Homo sapiens.
Assay [8] addresses T3, RNA-binding protein pos-1 (Caenorhabditis elegans, UniProt G5EF15).
T3 sequence (G5EF15 whole entry): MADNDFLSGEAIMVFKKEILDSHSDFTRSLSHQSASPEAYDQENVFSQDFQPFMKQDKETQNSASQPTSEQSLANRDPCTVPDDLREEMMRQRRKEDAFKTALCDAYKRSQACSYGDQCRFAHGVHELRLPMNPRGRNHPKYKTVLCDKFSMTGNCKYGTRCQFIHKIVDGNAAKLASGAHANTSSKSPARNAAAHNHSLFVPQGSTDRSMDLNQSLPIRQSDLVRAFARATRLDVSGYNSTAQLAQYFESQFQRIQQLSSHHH
The experiment in a line: inhibitors of POS-1/mex-3 RNA binding, dose response, biochemical, fluorescence polarization (AID 1964).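 Also: purified POS-1 fused to maltose binding protein made in E. coli; potency of compounds blocking POS-1 binding to fluorescent RNA.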

The target of assay [9] is T4, Zinc finger protein mex-5 (Caenorhabditis elegans, UniProt Q9XUB2).
T4 sequence (Q9XUB2 whole entry): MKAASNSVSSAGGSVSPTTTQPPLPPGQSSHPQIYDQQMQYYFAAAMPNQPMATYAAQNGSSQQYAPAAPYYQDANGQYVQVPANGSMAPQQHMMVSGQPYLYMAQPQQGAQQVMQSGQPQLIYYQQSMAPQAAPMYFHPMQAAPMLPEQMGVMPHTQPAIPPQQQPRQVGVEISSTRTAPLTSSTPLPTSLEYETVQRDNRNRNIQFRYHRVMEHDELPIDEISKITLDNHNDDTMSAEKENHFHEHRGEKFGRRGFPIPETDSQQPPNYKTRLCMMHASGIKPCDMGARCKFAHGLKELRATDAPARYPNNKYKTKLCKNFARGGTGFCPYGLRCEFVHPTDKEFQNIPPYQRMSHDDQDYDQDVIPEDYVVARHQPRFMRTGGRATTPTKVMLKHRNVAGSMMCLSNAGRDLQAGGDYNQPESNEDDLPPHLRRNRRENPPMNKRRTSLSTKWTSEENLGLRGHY
The experiment in a line: MEX-5/TCR-2 RNA interaction inhibitors, dose response, biochemical, C. elegans, fluorescence polarization (AID 1960). A general note: Fluorescence polarisation rises when a labelled molecule tumbles more slowly, as on binding a larger partner.

Assay [10] has as its target T5, Replicative DNA helicase DnaB (Mycobacterium tuberculosis, UniProt P9WMR3).
T5 sequence (P9WMR3 whole entry): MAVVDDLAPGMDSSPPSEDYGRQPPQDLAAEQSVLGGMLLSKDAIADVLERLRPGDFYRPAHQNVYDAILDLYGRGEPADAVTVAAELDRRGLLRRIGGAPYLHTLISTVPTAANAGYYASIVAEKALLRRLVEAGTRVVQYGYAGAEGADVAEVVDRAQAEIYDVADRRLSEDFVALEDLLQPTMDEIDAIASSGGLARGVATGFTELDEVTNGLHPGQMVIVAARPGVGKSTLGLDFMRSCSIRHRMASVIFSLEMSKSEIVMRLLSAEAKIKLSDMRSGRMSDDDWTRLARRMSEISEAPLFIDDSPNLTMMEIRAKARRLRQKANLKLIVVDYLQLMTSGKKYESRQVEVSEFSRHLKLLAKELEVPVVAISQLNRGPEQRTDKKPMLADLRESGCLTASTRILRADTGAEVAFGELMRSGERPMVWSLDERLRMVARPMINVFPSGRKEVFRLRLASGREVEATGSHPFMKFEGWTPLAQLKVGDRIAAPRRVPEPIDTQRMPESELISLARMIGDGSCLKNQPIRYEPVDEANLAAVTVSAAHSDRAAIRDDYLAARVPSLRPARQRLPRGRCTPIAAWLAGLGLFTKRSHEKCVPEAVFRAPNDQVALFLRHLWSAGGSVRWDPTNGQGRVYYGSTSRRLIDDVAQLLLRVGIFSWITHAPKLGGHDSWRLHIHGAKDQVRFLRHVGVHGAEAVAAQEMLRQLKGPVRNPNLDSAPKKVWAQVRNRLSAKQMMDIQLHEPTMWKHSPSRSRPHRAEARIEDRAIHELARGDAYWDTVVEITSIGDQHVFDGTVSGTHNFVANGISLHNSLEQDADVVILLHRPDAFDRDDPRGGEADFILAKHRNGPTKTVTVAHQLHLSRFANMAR
Kind of assay: DnaB intein splicing inhibitors, dose response, biochemical, cell-free fluorescence (AID 449749). Type of assay: functional.

In another assay the target is Genome polyprotein (dengue virus type 2, UniProt P29990). The experiment in a line: Dengue-2 NS5 methyltransferase inhibitors, primary screen, biochemical, confirmation dose response (AID 588689). In kind it is functional.
Another assay addresses T6, Protein RecA (Mycobacterium tuberculosis, UniProt P9WHJ3).
T6 sequence (P9WHJ3 whole entry): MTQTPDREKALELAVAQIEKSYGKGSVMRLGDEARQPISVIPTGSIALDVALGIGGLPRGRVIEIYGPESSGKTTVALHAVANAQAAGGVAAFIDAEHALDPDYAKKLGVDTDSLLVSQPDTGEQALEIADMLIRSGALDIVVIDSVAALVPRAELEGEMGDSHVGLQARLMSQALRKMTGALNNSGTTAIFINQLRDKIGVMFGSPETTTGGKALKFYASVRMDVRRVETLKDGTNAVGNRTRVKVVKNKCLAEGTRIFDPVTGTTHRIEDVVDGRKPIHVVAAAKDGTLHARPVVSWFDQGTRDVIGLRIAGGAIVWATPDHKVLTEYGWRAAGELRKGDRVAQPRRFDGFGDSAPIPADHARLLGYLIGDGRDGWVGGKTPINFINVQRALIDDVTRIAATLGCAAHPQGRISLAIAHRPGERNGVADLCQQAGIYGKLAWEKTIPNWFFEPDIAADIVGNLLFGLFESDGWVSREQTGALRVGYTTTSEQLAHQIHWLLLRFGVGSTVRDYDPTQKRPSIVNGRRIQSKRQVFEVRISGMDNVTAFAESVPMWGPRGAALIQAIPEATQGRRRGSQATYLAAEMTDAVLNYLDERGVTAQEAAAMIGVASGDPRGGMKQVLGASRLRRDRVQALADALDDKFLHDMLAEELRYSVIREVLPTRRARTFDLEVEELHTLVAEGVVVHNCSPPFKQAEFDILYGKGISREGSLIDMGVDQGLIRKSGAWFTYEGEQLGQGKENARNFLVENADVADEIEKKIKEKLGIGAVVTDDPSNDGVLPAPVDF
Kind of assay: Fluorescence Cell-Free Homogeneous Dose Retest to Identify Inhibitors of RecA-Intein Splicing Activity. [Related pubchem assays (depositor defined):AID2097, AID2223, AID489010, AID492950]. In kind it is functional.

A further assay relates to H9c2. The experiment in a line: cells. Type of assay: functional, cell-based. The conditions noted are these: Rattus norvegicus, H9c2, Myocardium.
The next assay has as its target Cytochrome P450 2C9 (Homo sapiens, UniProt P11712).
The next assay deals with HeLa. The experiment in a line: HeLa cell cytotoxicity, dose response, cytotoxicity control for MITF activator project, CellTiter-Glo luminescence, cherry-pick samples (AID 540259). Type of assay: functional, cell-based. As to conditions: Homo sapiens. For orientation: In ATP-based viability assays light output follows the ATP content of the culture.

The source made the active and inactive calls.

ATP-dependent molecular chaperone HSP82, sequence (C4YTQ8 whole entry): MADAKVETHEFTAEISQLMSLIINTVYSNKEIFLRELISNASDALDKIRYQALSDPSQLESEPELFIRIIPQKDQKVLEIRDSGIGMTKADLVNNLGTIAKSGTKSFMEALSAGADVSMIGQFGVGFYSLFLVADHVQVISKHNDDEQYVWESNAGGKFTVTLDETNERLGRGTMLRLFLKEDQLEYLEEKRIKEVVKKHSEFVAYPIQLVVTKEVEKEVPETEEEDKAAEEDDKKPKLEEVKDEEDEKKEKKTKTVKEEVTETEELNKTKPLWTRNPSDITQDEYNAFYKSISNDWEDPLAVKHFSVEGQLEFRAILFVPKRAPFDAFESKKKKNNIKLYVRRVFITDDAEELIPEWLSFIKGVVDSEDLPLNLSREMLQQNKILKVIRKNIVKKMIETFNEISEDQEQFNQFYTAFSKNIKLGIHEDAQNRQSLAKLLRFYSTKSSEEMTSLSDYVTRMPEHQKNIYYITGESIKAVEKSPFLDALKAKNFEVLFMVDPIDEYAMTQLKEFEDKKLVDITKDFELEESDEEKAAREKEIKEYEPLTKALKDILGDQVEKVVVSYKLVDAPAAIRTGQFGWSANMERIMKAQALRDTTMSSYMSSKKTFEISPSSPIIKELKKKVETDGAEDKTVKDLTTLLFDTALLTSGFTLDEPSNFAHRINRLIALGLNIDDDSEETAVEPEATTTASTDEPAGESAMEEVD
Genome polyprotein, sequence (P29990 2492-3391 limits assumed): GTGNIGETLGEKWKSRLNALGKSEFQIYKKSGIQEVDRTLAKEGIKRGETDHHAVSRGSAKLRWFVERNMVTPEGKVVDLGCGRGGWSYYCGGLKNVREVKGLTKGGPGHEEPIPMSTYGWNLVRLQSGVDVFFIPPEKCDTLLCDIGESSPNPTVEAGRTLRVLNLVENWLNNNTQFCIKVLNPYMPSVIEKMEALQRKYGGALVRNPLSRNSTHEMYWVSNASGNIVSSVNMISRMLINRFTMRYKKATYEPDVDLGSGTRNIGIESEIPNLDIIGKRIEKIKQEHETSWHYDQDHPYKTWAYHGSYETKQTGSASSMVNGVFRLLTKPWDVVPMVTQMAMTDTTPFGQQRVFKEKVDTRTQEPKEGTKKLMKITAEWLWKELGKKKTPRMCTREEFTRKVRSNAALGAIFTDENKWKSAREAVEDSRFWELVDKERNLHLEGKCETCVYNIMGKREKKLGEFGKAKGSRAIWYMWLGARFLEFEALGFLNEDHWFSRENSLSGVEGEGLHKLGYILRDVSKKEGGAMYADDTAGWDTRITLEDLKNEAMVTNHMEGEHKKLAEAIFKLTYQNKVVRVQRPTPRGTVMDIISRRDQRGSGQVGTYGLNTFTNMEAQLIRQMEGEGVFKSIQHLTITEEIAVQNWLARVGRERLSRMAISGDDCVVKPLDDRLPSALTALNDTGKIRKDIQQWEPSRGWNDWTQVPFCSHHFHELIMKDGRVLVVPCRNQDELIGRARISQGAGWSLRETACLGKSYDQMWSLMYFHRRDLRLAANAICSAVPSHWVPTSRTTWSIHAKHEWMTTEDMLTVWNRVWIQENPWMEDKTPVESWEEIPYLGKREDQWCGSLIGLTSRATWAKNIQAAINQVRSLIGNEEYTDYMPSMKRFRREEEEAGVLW
Cytochrome P450 2C9, sequence (P11712 whole entry): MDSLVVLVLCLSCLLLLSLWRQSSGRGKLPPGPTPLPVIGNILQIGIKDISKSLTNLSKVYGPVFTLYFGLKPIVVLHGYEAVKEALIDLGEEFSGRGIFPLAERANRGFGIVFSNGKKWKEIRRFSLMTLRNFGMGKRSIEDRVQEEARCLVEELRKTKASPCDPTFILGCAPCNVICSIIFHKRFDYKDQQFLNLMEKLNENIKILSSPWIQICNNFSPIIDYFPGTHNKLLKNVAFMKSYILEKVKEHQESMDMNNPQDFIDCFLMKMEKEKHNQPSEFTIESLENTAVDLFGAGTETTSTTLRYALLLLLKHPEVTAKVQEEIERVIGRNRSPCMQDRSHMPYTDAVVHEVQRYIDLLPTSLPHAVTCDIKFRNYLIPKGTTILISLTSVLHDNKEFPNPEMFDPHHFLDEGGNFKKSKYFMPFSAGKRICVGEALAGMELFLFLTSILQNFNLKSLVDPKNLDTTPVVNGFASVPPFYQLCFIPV

Usually EC50 stands for the concentration giving half of the maximal effect. For `COc1ccc2nc(SCC(C)=O)c(C#N)cc2c1`, the EC50 is > 99 µM (inactive) in [1] and 16.5 µM (active) in [2].

One may read the AC50 as the midpoint of the concentration-response curve, whichever way the signal moves. With `CCCC(=O)NC(c1ccco1)c1cc([N+](=O)[O-])c2cccnc2c1O` (centres undefined), the EC50 is > 150 µM (inactive) in assay [3], > 180 µM (inactive) in [4], 20.3 µM (active) in assay [5] and 0.826 µM (active) in assay [6]. Further, the half-maximal activity concentration (AC50) in assay [7] was 2.02 µM (active).

For the molecule `CC1=NN(c2ccccc2)C(=O)/C1=C/c1cc(C)n(C2CC2)c1C`, the EC50 in assay [1] and in [2] was > 99 µM (inactive) in each case.

As to `CCCCOC(=O)Cn1c2ccc(OC)cc2c2nc3ccccc3nc21`, the EC50 was > 300 µM (not active) in assay [8], > 99 µM (inactive) in assay [1], > 300 µM (not active) in assay [9] and 24.7 µM (inactive) in assay [2].

By IC50 is commonly meant the concentration that inhibits the measured activity by half. As for `Cc1nn(-c2ccccc2)c2c1C(c1cccs1)C(C#N)=C(N)O2` (centres undefined), the AC50 in assay [10] was 7 µM (active). Moreover, the IC50 on Genome polyprotein was > 100 µM (active). Besides, the EC50 at Protein RecA was 1.83 µM (active).

Turning to `CC(C)(C)c1ccc(OCCCC(=O)NNC(=O)c2ccccc2O)cc1`, the EC50 in [3] was > 160 µM (inactive); in assay [4] it was > 180 µM (inactive); in [5] it was 51 µM (inconclusive); in assay [6] it was > 38 µM (not active). For the same molecule, in the assay with H9c2, the IC50 is > 79 µM (inactive).

As to `Cc1ccc(C(c2c(O)n3c(nc2=O)SCC3)c2c(O)n3c(nc2=O)SCC3)cc1`, the IC50 on Genome polyprotein is 84.2 µM (active).

On to `Clc1ccc(-c2nnc(CCc3ccccc3)o2)c(Cl)c1`, for which the AC50 on Cytochrome P450 2C9 is 39.8 µM (inconclusive); in the assay on HeLa it was 78.9 µM (active).

Consider `O=C1/C(=C/c2cccnc2)CCc2c1[nH]c1ccccc21`, for which the EC50 in assay [3] is > 150 µM (inactive); in assay [4] it was > 180 µM (inactive); in [5], > 160 µM (inactive); in assay [6], 1.95 µM (active). In addition, in the assay on HeLa, the AC50 is 18.7 µM (active).
